# From the NIST ThermoML archive (doi:10.1016/j.jct.2006.10.008)
# Numbers after ± are expanded uncertainties.
# Experiments:
# [1] = xn = mol fraction of the nth substance listed; conditions: 298.15 K, 101 kPa, Liquid
# [2] = excess molar enthalpy (molar enthalpy of mixing); xn = mol fraction of the nth substance listed; conditions: 298.15 K, 101 kPa, Liquid, Calvet calorimetry
smiles,measurement,setting,value
CCCCCOC=O [pentyl methanoate] + ClCCCCCCCl,mass density,[1]; x1 = 0.0731,1051.9 ± 0.42 kg/m3
same,mass density,[1]; x1 = 0.1352,1041.69 ± 0.4 kg/m3
same,mass density,[1]; x1 = 0.1967,1031.48 ± 0.38 kg/m3
same,mass density,[1]; x1 = 0.3212,1010.41 ± 0.34 kg/m3
same,mass density,[1]; x1 = 0.3822,999.88 ± 0.32 kg/m3
same,mass density,[1]; x1 = 0.4398,989.79 ± 0.33 kg/m3
same,mass density,[1]; x1 = 0.558,968.7 ± 0.36 kg/m3
same,mass density,[1]; x1 = 0.6153,958.24 ± 0.37 kg/m3
same,mass density,[1]; x1 = 0.6723,947.69 ± 0.38 kg/m3
same,mass density,[1]; x1 = 0.7282,937.22 ± 0.4 kg/m3
same,mass density,[1]; x1 = 0.7836,926.72 ± 0.41 kg/m3
same,mass density,[1]; x1 = 0.839,916.1 ± 0.42 kg/m3
same,mass density,[1]; x1 = 0.893,905.58 ± 0.43 kg/m3
same,mass density,[1]; x1 = 0.9462,895.13 ± 0.45 kg/m3
same,excess molar enthalpy,[2]; x1 = 0.0697,-0.00265 ± 0.000215 kcal/mol
same,excess molar enthalpy,[2]; x1 = 0.162,-0.00595 ± 0.000239 kcal/mol
same,excess molar enthalpy,[2]; x1 = 0.2559,-0.0114 ± 0.000287 kcal/mol
same,excess molar enthalpy,[2]; x1 = 0.3406,-0.0172 ± 0.000311 kcal/mol
same,excess molar enthalpy,[2]; x1 = 0.4168,-0.0225 ± 0.000359 kcal/mol
same,excess molar enthalpy,[2]; x1 = 0.4813,-0.0253 ± 0.000382 kcal/mol
same,excess molar enthalpy,[2]; x1 = 0.4927,-0.0259 ± 0.000382 kcal/mol
same,excess molar enthalpy,[2]; x1 = 0.5399,-0.0275 ± 0.000406 kcal/mol
same,excess molar enthalpy,[2]; x1 = 0.5935,-0.0264 ± 0.000382 kcal/mol
same,excess molar enthalpy,[2]; x1 = 0.6653,-0.0239 ± 0.000382 kcal/mol
same,excess molar enthalpy,[2]; x1 = 0.731,-0.0207 ± 0.000359 kcal/mol
same,excess molar enthalpy,[2]; x1 = 0.8005,-0.0167 ± 0.000311 kcal/mol
same,excess molar enthalpy,[2]; x1 = 0.8731,-0.0112 ± 0.000263 kcal/mol
same,excess molar enthalpy,[2]; x1 = 0.9459,-0.00559 ± 0.000239 kcal/mol
CCCCOC=O [butyl methanoate] + ClCCCl,mass density,[1]; x1 = 0.0446,1222.63 ± 0.77 kg/m3
same,mass density,[1]; x1 = 0.087,1201.85 ± 0.73 kg/m3
same,mass density,[1]; x1 = 0.1314,1180.87 ± 0.68 kg/m3
same,mass density,[1]; x1 = 0.1786,1159.63 ± 0.64 kg/m3
same,mass density,[1]; x1 = 0.2266,1138.77 ± 0.6 kg/m3
same,mass density,[1]; x1 = 0.277,1117.89 ± 0.56 kg/m3
same,mass density,[1]; x1 = 0.3837,1076.58 ± 0.48 kg/m3
same,mass density,[1]; x1 = 0.4403,1056.07 ± 0.43 kg/m3
same,mass density,[1]; x1 = 0.5,1035.47 ± 0.39 kg/m3
same,mass density,[1]; x1 = 0.5622,1014.9 ± 0.35 kg/m3
same,mass density,[1]; x1 = 0.6248,995.09 ± 0.33 kg/m3
same,mass density,[1]; x1 = 0.6931,974.48 ± 0.35 kg/m3
same,mass density,[1]; x1 = 0.7645,953.92 ± 0.38 kg/m3
same,mass density,[1]; x1 = 0.8389,933.51 ± 0.4 kg/m3
same,excess molar enthalpy,[2]; x1 = 0.0414,-0.00954 ± 0.000287 kcal/mol
same,excess molar enthalpy,[2]; x1 = 0.0923,-0.0212 ± 0.000359 kcal/mol
same,excess molar enthalpy,[2]; x1 = 0.1436,-0.0343 ± 0.000454 kcal/mol
same,excess molar enthalpy,[2]; x1 = 0.1984,-0.0481 ± 0.000574 kcal/mol
same,excess molar enthalpy,[2]; x1 = 0.2527,-0.0619 ± 0.000669 kcal/mol
same,excess molar enthalpy,[2]; x1 = 0.3048,-0.075 ± 0.000765 kcal/mol
same,excess molar enthalpy,[2]; x1 = 0.3561,-0.08504 ± 0.000837 kcal/mol
same,excess molar enthalpy,[2]; x1 = 0.4041,-0.09405 ± 0.000908 kcal/mol
same,excess molar enthalpy,[2]; x1 = 0.4493,-0.1003 ± 0.000956 kcal/mol
same,excess molar enthalpy,[2]; x1 = 0.4629,-0.1006 ± 0.000956 kcal/mol
same,excess molar enthalpy,[2]; x1 = 0.5202,-0.1025 ± 0.00098 kcal/mol
same,excess molar enthalpy,[2]; x1 = 0.5856,-0.1005 ± 0.000956 kcal/mol
same,excess molar enthalpy,[2]; x1 = 0.6594,-0.09278 ± 0.000908 kcal/mol
same,excess molar enthalpy,[2]; x1 = 0.7406,-0.0785 ± 0.000789 kcal/mol
same,excess molar enthalpy,[2]; x1 = 0.829,-0.0569 ± 0.000645 kcal/mol
same,excess molar enthalpy,[2]; x1 = 0.9165,-0.0319 ± 0.000454 kcal/mol
"ClCCCCCCl [1,5-dichloropentane] + CCCCOC=O",mass density,[1]; x2 = 0.0753,1081.49 ± 0.48 kg/m3
same,mass density,[1]; x2 = 0.1366,1070.16 ± 0.46 kg/m3
same,mass density,[1]; x2 = 0.2613,1046.7 ± 0.41 kg/m3
same,mass density,[1]; x2 = 0.3251,1034.45 ± 0.39 kg/m3
same,mass density,[1]; x2 = 0.3849,1022.81 ± 0.37 kg/m3
same,mass density,[1]; x2 = 0.4446,1011 ± 0.34 kg/m3
same,mass density,[1]; x2 = 0.5039,999.1 ± 0.32 kg/m3
same,mass density,[1]; x2 = 0.6199,975.33 ± 0.35 kg/m3
same,mass density,[1]; x2 = 0.676,963.59 ± 0.37 kg/m3
same,mass density,[1]; x2 = 0.732,951.7 ± 0.38 kg/m3
same,mass density,[1]; x2 = 0.787,939.85 ± 0.39 kg/m3
same,mass density,[1]; x2 = 0.841,928.06 ± 0.41 kg/m3
same,mass density,[1]; x2 = 0.8939,916.34 ± 0.42 kg/m3
same,mass density,[1]; x2 = 0.9477,904.29 ± 0.44 kg/m3
same,excess molar enthalpy,[2]; x2 = 0.0722,0.000717 ± 0.000191 kcal/mol
same,excess molar enthalpy,[2]; x2 = 0.1463,-0.000837 ± 0.000191 kcal/mol
same,excess molar enthalpy,[2]; x2 = 0.2242,-0.0054 ± 0.000239 kcal/mol
same,excess molar enthalpy,[2]; x2 = 0.2989,-0.0111 ± 0.000287 kcal/mol
same,excess molar enthalpy,[2]; x2 = 0.3685,-0.0188 ± 0.000335 kcal/mol
same,excess molar enthalpy,[2]; x2 = 0.4319,-0.0268 ± 0.000406 kcal/mol
same,excess molar enthalpy,[2]; x2 = 0.4894,-0.0315 ± 0.00043 kcal/mol
same,excess molar enthalpy,[2]; x2 = 0.5395,-0.0354 ± 0.000454 kcal/mol
same,excess molar enthalpy,[2]; x2 = 0.5701,-0.037 ± 0.000478 kcal/mol
same,excess molar enthalpy,[2]; x2 = 0.5843,-0.0369 ± 0.000478 kcal/mol
same,excess molar enthalpy,[2]; x2 = 0.6266,-0.0344 ± 0.000454 kcal/mol
same,excess molar enthalpy,[2]; x2 = 0.6861,-0.0311 ± 0.00043 kcal/mol
same,excess molar enthalpy,[2]; x2 = 0.7462,-0.0271 ± 0.000406 kcal/mol
same,excess molar enthalpy,[2]; x2 = 0.8107,-0.0216 ± 0.000359 kcal/mol
same,excess molar enthalpy,[2]; x2 = 0.8755,-0.0156 ± 0.000311 kcal/mol
same,excess molar enthalpy,[2]; x2 = 0.9382,-0.00894 ± 0.000263 kcal/mol
